# Legend:
# Test in all cases: cells
# LS-411N = type: functional, cell-based, Homo sapiens; conditions: ls-411n
# NCI-H1838 = type: functional, cell-based, Homo sapiens; conditions: nci-h1838;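 further: growth inhibition of NCI-H1838 cells, determined with a cell viability readout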
# Description: SANGER: Inhibition of human NCI-H1838 cell growth in a cell viability assay.
# SJSA-1 = type: functional, cell-based, Homo sapiens; conditions: sjsa-1;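 further: growth inhibition of human SJSA-1 cells, read out through a cell viability measurement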
# Description: SANGER: Inhibition of human SJSA-1 cell growth in a cell viability assay.
# MV4-11 = type: functional, cell-based, Homo sapiens, MV-4-11; conditions: mv-4-11;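 further: cell viability readout measuring growth inhibition of human MV-4-11 cells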
# Description: SANGER: Inhibition of human MV-4-11 cell growth in a cell viability assay.
# EOL1 = type: functional, cell-based, Homo sapiens; conditions: eol1;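 further: growth inhibition of EoL-1 cells, read out by a cell viability assay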
# Description: SANGER: Inhibition of human EoL-1-cell cell growth in a cell viability assay.
# CTV-1 = type: functional, cell-based, Homo sapiens; conditions: ctv-1;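 further: growth inhibition of the cell line, read out with a cell viability assay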
# Description: SANGER: Inhibition of human CTV-1 cell growth in a cell viability assay.
# KLE = type: functional, cell-based, Homo sapiens; conditions: kle;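 further: growth inhibition of human KLE cells, read out with a cell viability assay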
# Description: SANGER: Inhibition of human KLE cell growth in a cell viability assay.
# LB373-MEL-D = type: functional, cell-based, Homo sapiens; conditions: lb373-mel-d;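 further: growth inhibition of the cell line, read out in a cell viability assay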
# Description: SANGER: Inhibition of human LB373-MEL-D cell growth in a cell viability assay.
# EC-GI-10 = type: functional, cell-based, Homo sapiens; conditions: ec-gi-10
# Description: SANGER: Inhibition of human EC-GI-10 cell growth in a cell viability assay.
# COLO-800 = type: functional, cell-based, Homo sapiens; conditions: colo-800;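 further: growth inhibition of COLO-800 cells, read out with a cell viability assay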
# Description: SANGER: Inhibition of human COLO-800 cell growth in a cell viability assay.
# KM12 = type: functional, cell-based, Homo sapiens; conditions: km12;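 further: KM12 cell growth inhibition, read out with a cell viability assay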
# Description: SANGER: Inhibition of human KM12 cell growth in a cell viability assay.
# NTERA-2-cl-D1 = type: functional, cell-based, Homo sapiens; conditions: ntera-2-cl-d1;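 further: inhibition of cell growth, measured with a cell viability assay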
# Description: SANGER: Inhibition of human NTERA-S-cl-D1 cell growth in a cell viability assay.
# HEL = type: functional, cell-based, Homo sapiens; conditions: hel;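 further: growth inhibition of HEL cells, read out with a cell viability assay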
# Description: SANGER: Inhibition of human HEL cell growth in a cell viability assay.
# SW684 = type: functional, cell-based, Homo sapiens; conditions: sw684;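 further: growth inhibition of human SW684 cells, measured by a cell viability assay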
# Description: SANGER: Inhibition of human SW684 cell growth in a cell viability assay.
# MOLT-16 = type: functional, cell-based, Homo sapiens; conditions: molt-16;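 further: growth inhibition of human MOLT-16 cells, read out with a cell viability assay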
# Description: SANGER: Inhibition of human MOLT-16 cell growth in a cell viability assay.
# NCI-H69 = type: functional, cell-based, Homo sapiens; conditions: nci-h69;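 further: growth inhibition of the cell line, read out with a cell viability assay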
# Description: SANGER: Inhibition of human NCI-H69 cell growth in a cell viability assay.
# CAS-1 = type: functional, cell-based, Homo sapiens; conditions: cas-1;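 further: growth inhibition of CAS-1 cells, measured with a cell viability assay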
# Description: SANGER: Inhibition of human CAS-1 cell growth in a cell viability assay.
# LB771-HNC = type: functional, cell-based, Homo sapiens; conditions: lb771-hnc;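 further: growth inhibition of LB771-HNC human cells, read out with a cell viability assay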
# Description: SANGER: Inhibition of human LB771-HNC cell growth in a cell viability assay.
# HAL-01 = type: functional, cell-based, Homo sapiens; conditions: hal-01;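 further: growth inhibition of human HAL-01 cells, read out with a cell viability assay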
# Description: SANGER: Inhibition of human HAL-01 cell growth in a cell viability assay.
# HC-1 = type: functional, cell-based, Homo sapiens; conditions: hc-1;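 further: growth inhibition of HC-1 cells measured by a cell viability assay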
# Description: SANGER: Inhibition of human HC-1 cell growth in a cell viability assay.
# SK-LMS-1 = type: functional, cell-based, Homo sapiens; conditions: sk-lms-1;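 further: growth inhibition of human SK-LMS-1 cells, read out with a cell viability assay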
# Description: SANGER: Inhibition of human SK-LMS-1 cell growth in a cell viability assay.
# NOS-1 = type: functional, cell-based, Homo sapiens; conditions: nos-1;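 further: growth inhibition of the human NOS-1 cell line, read out with a cell viability assay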
# Description: SANGER: Inhibition of human NOS-1 cell growth in a cell viability assay.
# ES3 = type: functional, cell-based, Homo sapiens; conditions: es3;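 further: growth inhibition of ES3 cells, read out with a cell viability assay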
# Description: SANGER: Inhibition of human ES3 cell growth in a cell viability assay.
# A3-KAW = type: functional, cell-based, Homo sapiens; conditions: a3-kaw;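 further: growth inhibition of human A3-KAW cells, read out with a cell viability assay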
# Description: SANGER: Inhibition of human A3-KAW cell growth in a cell viability assay.
# TE-11 = type: functional, cell-based, Homo sapiens; conditions: te-11;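 further: growth inhibition of human TE-11 cells, read out by a cell viability assay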
# Description: SANGER: Inhibition of human TE-11 cell growth in a cell viability assay.
# ES5 = type: functional, cell-based, Homo sapiens; conditions: es5;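 further: growth inhibition of human ES5 cells, read out by a cell viability assay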
# Description: SANGER: Inhibition of human ES5 cell growth in a cell viability assay.
# MFM-223 = type: functional, cell-based, Homo sapiens; conditions: mfm-223
# Description: SANGER: Inhibition of human MFM-223 cell growth in a cell viability assay.
# ES6 = type: functional, cell-based, Homo sapiens; conditions: es6;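 further: growth inhibition of human ES6 cells, read out with a cell viability assay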
# Description: SANGER: Inhibition of human ES6 cell growth in a cell viability assay.
# DSH1 = type: functional, cell-based, Homo sapiens; conditions: dsh1;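 further: growth inhibition of human DSH1 cells, measured with a cell viability readout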
# Description: SANGER: Inhibition of human DSH1 cell growth in a cell viability assay.
# ES4 = type: functional, cell-based, Homo sapiens; conditions: es4;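 further: growth inhibition of human ES4 cells, read out by a cell viability assay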
# Description: SANGER: Inhibition of human ES4 cell growth in a cell viability assay.
# KY821 = type: functional, cell-based, Homo sapiens; conditions: ky821;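 further: growth inhibition of human KY821 cells, read out by a cell viability assay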
# Description: SANGER: Inhibition of human KY821 cell growth in a cell viability assay.
# SNU1 = type: functional, cell-based, Homo sapiens; conditions: snu1;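 further: growth inhibition of human NCI-SNU-1 cells, measured with a cell viability assay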
# Description: SANGER: Inhibition of human NCI-SNU-1 cell growth in a cell viability assay.
# HD-MY-Z = type: functional, cell-based, Homo sapiens; conditions: hd-my-z;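 further: growth inhibition of HD-MY-Z cells, read out with a cell viability assay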
# Description: SANGER: Inhibition of human HD-MY-Z cell growth in a cell viability assay.
# NCI-H226 = type: functional, cell-based, Homo sapiens; conditions: nci-h226;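 further: cell viability read-out used to gauge growth inhibition of the cells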
# Description: SANGER: Inhibition of human NCI-H226 cell growth in a cell viability assay.
# TK-10 = type: functional, cell-based, Homo sapiens; conditions: tk-10;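 further: growth inhibition of TK-10 cells, read out in a cell viability assay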
# Description: SANGER: Inhibition of human TK10 cell growth in a cell viability assay.
# COLO-684 = type: functional, cell-based, Homo sapiens; conditions: colo-684
# Description: SANGER: Inhibition of human COLO-684 cell growth in a cell viability assay.
# D283 Med = type: functional, cell-based, Homo sapiens; conditions: d283 med
# Description: SANGER: Inhibition of human D-283MED cell growth in a cell viability assay.
# EKVX = type: functional, cell-based, Homo sapiens; conditions: ekvx;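 further: growth inhibition of human EKVX cells, read out with a cell viability assay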
# Description: SANGER: Inhibition of human EKVX cell growth in a cell viability assay.
# LU-139 = type: functional, cell-based, Homo sapiens; conditions: lu-139
# Description: SANGER: Inhibition of human LU-139 cell growth in a cell viability assay.
# NCI-H720 = type: functional, cell-based, Homo sapiens; conditions: nci-h720;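 further: growth inhibition of human NCI-H720 cells determined by a cell viability assay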
# Description: SANGER: Inhibition of human NCI-H720 cell growth in a cell viability assay.
# SK-NEP-1 = type: functional, cell-based, Homo sapiens; conditions: sk-nep-1;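 further: growth inhibition of human SK-NEP-1 cells, read out by a cell viability assay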
# Description: SANGER: Inhibition of human SK-NEP-1 cell growth in a cell viability assay.
# TE-10 = type: functional, cell-based, Homo sapiens; conditions: te-10;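 further: growth inhibition of TE-10 cells, measured by a cell viability assay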
# Description: SANGER: Inhibition of human TE-10 cell growth in a cell viability assay.
# KNS-81-FD = type: functional, cell-based, Homo sapiens; conditions: kns-81-fd;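 further: growth inhibition of KNS-81-FD cells, read out with a cell viability assay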
# Description: SANGER: Inhibition of human KNS-81-FD cell growth in a cell viability assay.
# ATN-1 = type: functional, cell-based, Homo sapiens; conditions: atn-1;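 further: growth inhibition of human ATN-1 cells, read out with a cell viability assay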
# Description: SANGER: Inhibition of human ATN-1 cell growth in a cell viability assay.
# LS-1034 = type: functional, cell-based, Homo sapiens; conditions: ls-1034
# Description: SANGER: Inhibition of human LS-1034 cell growth in a cell viability assay.
# J-RT3-T3-5 = type: functional, cell-based, Homo sapiens; conditions: j-rt3-t3-5;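 further: cell viability assay measuring growth inhibition of human J-RT3-T3-5 cells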
# Description: SANGER: Inhibition of human J-RT3-T3-5 cell growth in a cell viability assay.
# KS-1 = type: functional, cell-based, Homo sapiens; conditions: ks-1;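 further: growth inhibition of KS-1 cells, read out with a cell viability assay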
# Description: SANGER: Inhibition of human KS-1 cell growth in a cell viability assay.
# KNS-42 = type: functional, cell-based, Homo sapiens; conditions: kns-42;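 further: growth inhibition of KNS-42 cells, read out with a cell viability assay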
# Description: SANGER: Inhibition of human KNS-42 cell growth in a cell viability assay.
# HCC2218 = type: functional, cell-based, Homo sapiens; conditions: hcc2218;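 further: cell viability assay read-out, with IC50 given as the concentration that inhibits growth of the cell line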
# Description: SANGER: Inhibition of human HCC2218 cell growth in a cell viability assay.
sequence,measurement,setting,value
BLEOMYCIN,IC50,LS-411N,0.0528 µM
same,IC50,NCI-H1838,24.5 µM
same,IC50,SJSA-1,2.19 µM
same,IC50,MV4-11,0.00991 µM
same,IC50,EOL1,2.42 µM
same,IC50,CTV-1,4.92 µM
same,IC50,KLE,21.2 µM
same,IC50,LB373-MEL-D,56.4 µM
same,IC50,EC-GI-10,305 µM
same,IC50,COLO-800,2.21 µM
same,IC50,KM12,9.19 µM
same,IC50,NTERA-2-cl-D1,0.000139 µM
same,IC50,HEL,10.8 µM
same,IC50,SW684,3870 µM
same,IC50,MOLT-16,29.5 µM
same,IC50,NCI-H69,104 µM
same,IC50,CAS-1,81 µM
same,IC50,LB771-HNC,209 µM
same,IC50,HAL-01,0.000453 µM
same,IC50,HC-1,0.993 µM
same,IC50,SK-LMS-1,2.66 µM
same,IC50,NOS-1,1.31 µM
same,IC50,ES3,1.61 µM
same,IC50,A3-KAW,0.717 µM
same,IC50,TE-11,6.08 µM
same,IC50,ES5,0.505 µM
same,IC50,MFM-223,11000 µM
same,IC50,ES6,0.406 µM
same,IC50,DSH1,155 µM
same,IC50,ES4,0.0383 µM
same,IC50,KY821,471 µM
same,IC50,SNU1,2.84 µM
same,IC50,HD-MY-Z,0.56 µM
same,IC50,NCI-H226,77.4 µM
same,IC50,TK-10,0.999 µM
same,IC50,COLO-684,237 µM
same,IC50,D283 Med,3.81 µM
same,IC50,EKVX,413 µM
same,IC50,LU-139,3440 µM
same,IC50,NCI-H720,103 µM
same,IC50,SK-NEP-1,31.9 µM
same,IC50,TE-10,0.783 µM
same,IC50,KNS-81-FD,664 µM
same,IC50,ATN-1,18.9 µM
same,IC50,LS-1034,35.4 µM
same,IC50,J-RT3-T3-5,0.712 µM
same,IC50,KS-1,0.0108 µM
same,IC50,KNS-42,693 µM
same,IC50,HCC2218,41.9 µM

# Source: ChEMBL document CHEMBL1201861, “Genomics of Drug Sensitity in Cancer screening data, Wellcome Trust Sanger Institute”
